According to article PMC5106240 (Drug Design, Development and Therapy, 2016):

What was measured:
Assay type in all cases: in vivo, Wistar rats
MES-induced convulsions = assay: MES-induced seizure model; settings: rats, 10 mg/kg IP, vs saline-treated group
PTZ-induced convulsions = assay: PTZ-induced seizure model; settings: rats
STR-induced convulsions = assay: STR-induced seizure model; settings: rats, 10, 20, 30 minutes observation
[1] = 10 mg/kg IP, 30 minutes before PTZ 60 mg/kg IP, 10, 20, 30 minutes observation

SMILES	Protective effect on MES-induced convulsions (duration of THLE) (MES-induced convulsions)	Protective effect on PTZ-induced convulsions (convulsion score) (PTZ-induced convulsions; [1])	Protective effect on STR-induced convulsions (convulsion score) (STR-induced convulsions; 10 mg/kg IP, 30 minutes before STR 3.5 mg/kg IP)	Protective effect on PTZ-induced convulsions (convulsion score) (PTZ-induced convulsions; 100 mg/kg IP, 10, 20, 30 minutes observation)	Protective effect on STR-induced convulsions (convulsion score) (STR-induced convulsions; 300 mg/kg IP)	Protective effect on PTZ-induced convulsions (convulsion score) (PTZ-induced convulsions; 10 and 15 mg/kg IP, 10, 20, 30 minutes)
Clc1ccc(CCCOCCCN2CCCCC2)cc1 [PIT, pitolisant]	moderately protected	failed to provide protection	failed to provide protection	–	–	–
CCCC(CCC)C(=O)O [VPA, valproic acid]	–	–	–	significant protection	significant protection	–
O=C1NC(=O)C(c2ccccc2)(c2ccc(OCCCN3CCCCC3)cc2)N1 (centres unmarked) [Compound 6, 5-Phenyl-5-(4-(3-(piperidin-1-yl)propoxy)phenyl) imidazolidine-2,4-dione]	failed to provide significant protection	full protection	–	–	–	significant and full protective effect
O=C1NC(=O)C(c2ccccc2)(c2ccccc2)N1 [PHT, Phenytoin]	fully	–	–	–	–	–
C[C@@H](N)Cc1cnc[nH]1 [RAMH, R-(α)-methyl-histamine]	did not affect MES-induced seizures	did not affect convulsion score	–	–	–	–
